The molecules below were run on Bmi-1 protein (assay: Sandwich ELISA Assay: Bmi-1 protein level in HT-1080 cells treated with test compounds).
Type: cell-based
Summary of the method: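 HT-1080 cells exposed to compounds (final DMSO 0.5%) for 40-48 h at 37° C, 5% CO2, then lysed. Bmi-1 quantified by sandwich ELISA (mouse anti-Bmi-1 capture, rabbit anti-Bmi-1 detection, HRP anti-rabbit, TMB), read at OD450 with OD570 reference, against recombinant GST-Bmi-1 standard curve (0-8000 pg/mL).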

Compound	EC50 [nM]
Cc1nc2ccccc2n1-c1nc(N)nc(Nc2ccc(N3CCOCC3)cc2)n1 [Cpd 135, 6-(2-methyl-1H-benzimidazol-1-yl)-N-[4-(morpholin-4-yl)phenyl]-1,3,5-triazine-2,4-diamine]	100 to 3000
Cc1nc2ccc(F)cc2n1-c1cnnc(Nc2ccc(OC(F)F)cc2)n1 [Cpd 136, N-[4-(difluoromethoxy)phenyl]-5-(6-fluoro-2-methyl-1H-benzimidazol-1-yl)-1,2,4-triazin-3-amine]	10 to 100
CCc1nc2ccc(F)cc2n1-c1cnnc(Nc2ccc(OC(F)F)cc2)n1 [Cpd 137, N-[4-(difluoromethoxy)phenyl]-5-(2-ethyl-6-fluoro-1H-benzimidazol-1-yl)-1,2,4-triazin-3-amine]	100 to 3000
Fc1ccc2nc(C3CC3)n(-c3cnnc(Nc4ccc(OC(F)F)cc4)n3)c2c1 [Cpd 138, 5-(2-cyclopropyl-6-fluoro-1H-benzimidazol-1-yl)-N-[4-(difluoromethoxy)phenyl]-1,2,4-triazin-3-amine]	100 to 3000
CCc1nc2ccccc2n1-c1nc(Nc2ccc(C(F)(F)F)cc2)c[n+]([O-])n1 [Cpd 139, 3-(2-ethyl-1H-benzimidazol-1-yl)-N-[4-(trifluoromethyl)phenyl]-1,2,4-triazin-5-amine 1-oxide]	10 to 100
CCc1nc2ccccc2n1-c1nc(Nc2ccc(OC(F)F)cc2)c[n+]([O-])n1 [Cpd 140, N-[4-(difluoromethoxy)phenyl]-3-(2-ethyl-1H-benzimidazol-1-yl)-1,2,4-triazin-5-amine 1-oxide]	100 to 3000
[O-][n+]1cc(Nc2ccc(C(F)(F)F)cc2)nc(-n2c(C3CC3)nc3ccccc32)n1 [Cpd 141, 3-(2-cyclopropyl-1H-benzimidazol-1-yl)-N-[4-(trifluoromethyl)phenyl]-1,2,4-triazin-5-amine 1-oxide]	10 to 100
CCc1nc2ccccc2n1-c1nnc(N)c(Nc2ccc(C(F)(F)F)cc2)n1 [Cpd 142, 3-(2-ethyl-1H-benzimidazol-1-yl)-N^5-[4-(trifluoromethyl)phenyl]-1,2,4-triazine-5,6-diamine]	100 to 3000
Cc1nc2ccccc2n1-c1nnc(N)c(Nc2ccc(C(F)(F)F)cc2)n1 [Cpd 143, 3-(2-methyl-1H-benzimidazol-1-yl)-N^5-[4-(trifluoromethyl)phenyl]-1,2,4-triazine-5,6-diamine]	100 to 3000
COc1ccc(Nc2cnnc(-n3c(C)nc4ccccc43)n2)cc1 [Cpd 144, N-(4-methoxyphenyl)-3-(2-methyl-1H-benzimidazol-1-yl)-1,2,4-triazin-5-amine]	1 to 10
CCc1nc2ccccc2n1-c1nncc(Nc2ccc(OC)cc2)n1 [Cpd 145, 3-(2-ethyl-1H-benzimidazol-1-yl)-N-(4-methoxyphenyl)-1,2,4-triazin-5-amine]	1 to 10
COc1ccc(Nc2cnnc(-n3c(C4CC4)nc4ccccc43)n2)cc1 [Cpd 146, 3-(2-cyclopropyl-1H-benzimidazol-1-yl)-N-(4-methoxyphenyl)-1,2,4-triazin-5-amine]	1 to 10
COc1ccc(Nc2nc(N)nc(-n3c(C)nc4ccccc43)n2)cc1 [Cpd 147, N-(4-methoxyphenyl)-6-(2-methyl-1H-benzimidazol-1-yl)-1,3,5-triazine-2,4-diamine]	1 to 10
Cc1ccc(Nc2nc(N)nc(-n3c(C)nc4ccccc43)n2)cc1 [Cpd 148, 6-(2-methyl-1H-benzimidazol-1-yl)-N-(4-methylphenyl)-1,3,5-triazine-2,4-diamine]	1 to 10
Cc1cccc(Nc2nc(N)nc(-n3c(C)nc4ccccc43)n2)c1 [Cpd 149, 6-(2-methyl-1H-benzimidazol-1-yl)-N-(3-methylphenyl)-1,3,5-triazine-2,4-diamine]	100 to 3000
Cc1nc2ccccc2n1-c1nc(N)nc(Nc2ccc(Cl)cc2)n1 [Cpd 150, N-(4-chlorophenyl)-6-(2-methyl-1H-benzimidazol-1-yl)-1,3,5-triazine-2,4-diamine]	10 to 100
Cc1nc2ccccc2n1-c1nc(N)nc(Nc2ccc(C#N)cc2)n1 [Cpd 151, 4-{[4-amino-6-(2-methyl-1H-benzimidazol-1-yl)-1,3,5-triazin-2-yl]amino}benzonitrile]	100 to 3000
Cc1nc2ncc(Cl)cc2n1-c1nc(N)nc(Nc2ccc(OC(F)(F)F)cc2)n1 [Cpd 152, 6-(6-chloro-2-methyl-1H-imidazo[4,5-b]pyridin-1-yl)-N-[4-(trifluoromethoxy)phenyl]-1,3,5-triazine-2,4-diamine]	100 to 3000
COc1ccc(Nc2nc(N)nc(-n3c(C4CC4)nc4ccccc43)n2)cc1 [Cpd 153, 6-(2-cyclopropyl-1H-benzimidazol-1-yl)-N-(4-methoxyphenyl)-1,3,5-triazine-2,4-diamine]	1 to 10
COc1cccc(Nc2nc(N)nc(-n3c(C4CC4)nc4ccccc43)n2)c1 [Cpd 154, 6-(2-cyclopropyl-1H-benzimidazol-1-yl)-N-(3-methoxyphenyl)-1,3,5-triazine-2,4-diamine]	100 to 3000
Cc1ccc(Nc2nc(N)nc(-n3c(C4CC4)nc4ccccc43)n2)cc1 [Cpd 155, 6-(2-cyclopropyl-1H-benzimidazol-1-yl)-N-(4-methylphenyl)-1,3,5-triazine-2,4-diamine]	1 to 10
Cc1cccc(Nc2nc(N)nc(-n3c(C4CC4)nc4ccccc43)n2)c1 [Cpd 156, 6-(2-cyclopropyl-1H-benzimidazol-1-yl)-N-(3-methylphenyl)-1,3,5-triazine-2,4-diamine]	100 to 3000
Nc1nc(Nc2ccc(Cl)cc2)nc(-n2c(C3CC3)nc3ccccc32)n1 [Cpd 157, N-(4-chlorophenyl)-6-(2-cyclopropyl-1H-benzimidazol-1-yl)-1,3,5-triazine-2,4-diamine]	10 to 100
N#Cc1ccc(Nc2nc(N)nc(-n3c(C4CC4)nc4ccccc43)n2)cc1 [Cpd 158, 4-{[4-amino-6-(2-cyclopropyl-1H-benzimidazol-1-yl)-1,3,5-triazin-2-yl]amino}benzonitrile]	100 to 3000
CCc1nc2ccccc2n1-c1nc(N)nc(Nc2ccc(OC)cc2)n1 [Cpd 159, 6-(2-ethyl-1H-benzimidazol-1-yl)-N-(4-methoxyphenyl)-1,3,5-triazine-2,4-diamine]	1 to 10
CCc1nc2ccccc2n1-c1nc(N)nc(Nc2ccc(C)cc2)n1 [Cpd 160, 6-(2-ethyl-1H-benzimidazol-1-yl)-N-(4-methylphenyl)-1,3,5-triazine-2,4-diamine]	1 to 10
CCc1nc2ccccc2n1-c1nc(N)nc(Nc2cccc(C)c2)n1 [Cpd 161, 6-(2-ethyl-1H-benzimidazol-1-yl)-N-(3-methylphenyl)-1,3,5-triazine-2,4-diamine]	100 to 3000
CCc1nc2ccccc2n1-c1nc(N)nc(Nc2ccc(Cl)cc2)n1 [Cpd 162, N-(4-chlorophenyl)-6-(2-ethyl-1H-benzimidazol-1-yl)-1,3,5-triazine-2,4-diamine]	10 to 100
CCc1nc2ccccc2n1-c1nc(N)nc(Nc2ccc(C#N)cc2)n1 [Cpd 163, 4-{[4-amino-6-(2-ethyl-1H-benzimidazol-1-yl)-1,3,5-triazin-2-yl]amino}benzonitrile]	100 to 3000
COc1ccc(Nc2nc(N)nc(-n3c(C)nc4ccc(F)cc43)n2)cc1 [Cpd 164, 6-(6-fluoro-2-methyl-1H-benzimidazol-1-yl)-N-(4-methoxyphenyl)-1,3,5-triazine-2,4-diamine]	1 to 10

Source: patent US9975878B2, “Substituted triazine BMI-1 inhibitors” (PTC Therapeutics, Inc., priority 2013, dated 2018)
